The source of these data is US5420289A, “Substituted indole-, indene-, pyranoindole- and tetrahydrocarbazole-alkanoic acid derivatives as inhibitors of PLA2 and lipoxygenase” (American Home Products Corporation, priority 1993, dated 1995).

For assay [1], the target named is T1, human synovial fluid PLA2 (Homo sapiens, UniProt P14555).
T1 sequence (P14555 21-144): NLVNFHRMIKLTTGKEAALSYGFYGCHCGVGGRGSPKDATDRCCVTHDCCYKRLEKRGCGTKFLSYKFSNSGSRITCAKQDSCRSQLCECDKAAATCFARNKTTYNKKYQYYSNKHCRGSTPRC
Description: in vitro isolated phospholipase A2 assay, human synovial fluid PLA2 (Example 74). The arrangement: inhibition / % Inhibition, HSF (human synovial fluid): dose or concentration left out as unconfirmed. Particulars: for inhibition: read-out: % Inhibition, HSF (human synovial fluid); for IC50: Table III, read-out: IC50 HSF (human synovial fluid). The assay is classed as biochemical. Here is the method:
(§1) The compounds of the invention are tested in an in vitro isolated phospholipase A2 assay to determine the ability of the test compounds to inhibit the release of arachidonic acid from an arachidonic acid-containing substrate by the action of phospholipase A2 enzyme from human and non-human sources.
(§2) This assay is carried out as follows:
(§3) Into a 15 mL polypropylene tube are added the following:
(§4) ^6 Two human PLA2 enzymes are used:
b) Purified human synovial fluid.
(§5) Incubate the 100mL reaction mixture for 10 minutes at 37° C. in a shaking water bath. The reaction is terminated by the addition of 2 mL tetrahydrofuran, followed by vortexlag. NH2 columns (100 mg/mL--Analytichem International) are conditioned with 0.5 mL tetrahydrofuran followed by 0.5 mL tetrahydrofuran/water (2 mL:0.1 mL, v/v).
(§6) The sample is loaded onto the columns and slowly drawn through them. The hydrolyzed arachidonic acid retained in the columns is eluted therefrom with 1 mL tetrahydrofuran/glacial acetic acid (2%). The arachidonic acid is transferred to scintillation vials and quantitated by b-counting analysis. A "total counts" sample is prepared by pipetting […] ^3 H-arachidonate E. coli directly into a scintillation vial to which is added 1 mL tetrahydrofuran. 10 mL aquasol (scintillation cocktail) is added to all samples. [formula]

The subject of assay [2] is synthesis of LTB4 by rat glycogen-elicited polymorphonuclear leukocytes (PMN). Put plainly: inhibition of LTB4 synthesis by rat glycogen-elicited PMN (Example 72). The assay is classed as cell-based, rat (female Wistar). To be noted: Leukocyte; for inhibition at 10000 µM: at 10 mM, negative number denotes potentiation; for inhibition at 500 µM: at 0.5 mM. An excerpt: This is especially true with respect to 5,12-diHETE, which is also denoted as LTB4 lsee Ford-Hitchinson, J. Roy. Soc. Med., 74, 831 (1981)]. Compounds which inhibit the PLA2 -mediated release of arachidonic acid thereby effectively prevent the oxidation of arachidonic acid to the various leukotriene products via the lipoxygenase cascade. Accordingly, the specificity of action of PLA2 inhibitors can be determined by the activity of test compounds in this assay, which measures the ability of compounds to inhibit the synthesis of LTB4 by rat glycogen-elicited polymorphonuclear leukocytes (PMN) in the presence of exogenous substrate.
The assay is carded out as follows:
(§7) Rat polymorphonuclear leukocytes (PMNs) are obtained from female Wistar rats (150-200 g) which receive an injection of 6% glycogen (10 ml i.p.). Rats are sacrificed 18-24 hours post injection by CO2 asphyxiation and the elicited cells are harvested by peritoneal lavage using physiological saline (0.9% NaC1). The exudate is centrifuged at 400 ×g for 10 minutes. The supernatant fluid is discarded and the cell pellet is resuspended to a concentration of 2.0×10^7 cells/mL in HBSS containing Ca^++ and Mg^++ and 10 mM L-cysteine.
(§8) To 1 mL aliquots of cell suspension, test drugs or vehicle are added, then preincubated at 37° C. for 10 minutes. A23187 (1 mM), [^3 H]-AA (3.0 mCi/mL) and unlabeled AA (1 mM) are then added and the samples are further incubated for 10 minutes. The reaction is terminated by centrifugation and pelleting cells. Supernatants are then analyzed by HPLC analysis on a 15 cm×4.6 mm ID supelcosil LC-18 (Supelco)(3M) column, using a two solvent system at a flow rate of 1.4 mL total flow as follows:
Gradient: (system is equilibrated with Solvent A)
Percent solvent changes are accomplished in a linear fashion.
Injections: […] of each supernatant is injected directly onto column and ^3 H arachidonic acid metabolites are monitored using an on-line radioactivity detector (Ramona, IN/U S, Fairfield, NJ).
Standards: 10^4 -2.0×10^4 dpm of eicosanoids of interest are injected in […] EtOH cocktail.
Co-chromatography with standard [^3 H] leukotriene B4 (LTB4) in medium of stimulated PMN exposed to drug is compared to that found in medium of stimulated cells exposed to no drug, generating percent inhibition.
Results are expressed as percent inhibition at a given compound dose or as an IC50 value.

The subject of assay [3] is cyclooxygenase (PGE2 synthesis) in rat polymorphonuclear leukocytes (PMN). Description: inhibition of PGE2 synthesis (cyclooxygenase) by rat glycogen-elicited PMN (Example 73). The class given is cell-based, rat (female Wistar). Particulars: Leukocyte; for inhibition at 10000 µM: at 10 mM. How it is done:
as §7, §8
In this assay, the procedure of Example 72 is carried out as described. However, in order to determine cyclooxygenase activity, the samples are cochromatographed with authentic reference [^3 H]-PGE2.
The results be calculated as in Example 72 and presented below: […]

In another assay the target is T2, human platelet PLA2 (Homo sapiens, UniProt P14555).
T2 construct: Semi-purified human platelet acid extract PLA2; from tissue; host or cells: human platelets (semi-purified acid extract)
T2 sequence (P14555 21-144): T1 sequence (P14555 21-144)
Description: in vitro isolated phospholipase A2 assay, human platelet PLA2 (Example 74). The assay is classed as biochemical. Further details: dose or concentration left out as unconfirmed. To be noted: read-out: % Inhibition, HP (human platelet). How it is done:
as §1, §2, §3, §4
a) Semi-purified human platelet acid extract PLA2 (in 10 mM
sodium acetate buffer, pH 4.5). Remove protein precipitate by
centrifugation at about 2200 rpm for 10 minutes.
as §5, §6

Assay [4] concerns 5-lipoxygenase in human whole blood. Description: inhibition of 5-lipoxygenase in human whole blood (Example 79). Particulars: 25 μM. The assay is classed as cell-based. Here is the method:
The assay of this Example measures the ability of the compounds tested to inhibit 5-lipoxygenase in human whole blood.
as §2
Blood is obtained in 50-100 ml quantities from male donors. White blood cell counts and differentials are made. Two ml of blood are placed in a 15 ml polypropylene test tube. Compounds are solubilized in dimethylsulfoxide and diluted 1:10 in 10% bovine serum albumin in phosphate buffered saline, pH 7.4 resulting in a final dimethylsulfoxide concentration of 0.1% in the blood. Then, compounds are added to the blood in a shaking water bath at 37° C. for 10 minutes prior to the addition of […] calcium ionophore (A23187; Sigma). After ionophore administration, whole blood samples are mixed and incubated for 20 minutes at 37° C. in a shaking water bath. Incubation is terminated by placing samples in an ice bath and immediately adding ethylene glycol-bis-(b-aminoethyl ether)-N,N,N',N'-tetraacetic acid (10 mM). Samples are mixed and centrifuged at 1200 × g for 15 minutes at 4° C. Preparation of samples for evaluation by RIA or ELISA is carried out by the following protocol. Plasma is removed from sample tubes, placed in 15 ml polypropylene test tubes containing 8 ml methanol, and then vortexed to precipitate protein. Samples are stored at -70° C. overnight. The next day, samples are centrifuged at 200 × g for 15 minutes at 4° C. to pellet the precipitate. Samples are dried in a Savant speed vac concentrator, reconstituted to original volume with ice cold RIA or ELISA buffer, and stored at -70° C. until assayed. The assay for eicosanoids (LTB4, T×B2, and PGE2) is performed as described by the manufacturer of the [^3 H]-RIA kit or ELISA kit (LTB4 -Amersham, TxB2 and PGE2 - Caymen Chemical).
The total eicosanoid level in 2 ml of blood is calculated and reported as ng/10^6 neutrophils. […] Drug effects are expressed as percent change from control values.
Compounds tested in vitro are solubilized in dimethylsulfoxide and diluted 1:10 in 10% bovine serum albumin in phosphate buffer saline resulting in a final dimethylsulfoxide concentration of 0.1% i n the blood.

Setting [5] is: * (negative) denotes a potentiation, read-out: % Inhibition (PGE2 synthesis).
[6] abbreviates: read-out: % Inhibition (PGE2 synthesis), symbol only.

Where a name gives a salt, the structure may show the parent alone. Read-outs that look alike come from different tables or passages of the source.

Take `Cc1c(CC(=O)O)c2cc(OCc3ccc4ccccc4n3)ccc2n1Cc1ccc(F)cc1` [Example 24, 1-[(4-Fluorophenyl)methyl]-2-methyl-5-(2-quinolinylmethoxy)-1H-indole-3-acetic acid hemihydrate]: the inhibition (usually the relative decrease from the control value, in per cent) in assay [1] worked out at 56%. The results for the inhibition at 10000 µM in assay [2] and in assay [3] (setting [5]) were 97% and -126%, respectively.
For `Cc1c(CC(=O)O)c2cc(OCc3ccc4ccccc4n3)ccc2n1C(=O)c1ccc(Cl)cc1` [Example 17, 1-(4-Chlorobenzoyl)-2-methyl-5-(2-quinolinylmethoxy)-1H-indole-3-acetic acid three quarters hydrate], in assay [1], the IC50 (in general, the concentration needed to halve the response being measured) came to 14.9 µM and the inhibition is 58%. The inhibition at 500 µM in assay [2] was found to be 46%. For the same compound, in assay [3] (at 0.5 mM, * (negative) denotes a potentiation), the inhibition at 500 µM came out at 60%.
Turning to `Cc1c(CC(=O)O)c2cc(OCc3csc(-c4ccc(Cl)cc4)n3)ccc2n1Cc1ccc(Cl)cc1` [Example 69, 5-[[2-(4-Chlorophenyl)-4-thiazolyl]methoxy]-1-[(4chlorophenyl)methyl]-2-methyl-1H-indole-3-acetic acid], the inhibition was found to be 54% in assay [1] and 8% on human platelet PLA2.
Take `CCCCCCn1c(C)c(CC(=O)O)c2cc(OCc3ccc4ccccc4n3)ccc21` [Example 30, 1-Hexyl-2-methyl-5-(2-quinolinylmethoxy)-1H-indole-3-acetic acid three quarters hydrate]: the half-inhibitory concentration (IC50) in assay [1] was 16.4 µM. Further, the inhibition in assay [1] was 46%. For the same compound, the inhibition at 10000 µM was 90% in assay [2] and -130% in assay [3] (setting [5]).
With `CCc1cc(OCc2ccc3ccccc3n2)cc2c3c([nH]c12)C(CC)(CC(=O)O)OCC3` (centres unmarked) [Example 8, 1,8-Diethyl-1,3,4,9-tetrahydro-6-(2-quinolinylmethoxy)pyrano[3.4-b]indole-1-acetic acid], the inhibition at 10000 µM in assay [2] was 91%; in assay [3] (setting [5]), 47%.
In the same order, the values of `CC1=C(CC(=O)O)c2cc(F)ccc2/C1=C\c1ccc([S+](C)[O-])cc1` (centres unmarked) [sulindac, reference compound] are -10% and 23%.
On to `COC(=O)Cc1c(C)n(Cc2ccc(Cl)cc2)c2ccc(OCc3ccc4ccccc4n3)cc12` [Example 16C, 1-[(4-Chlorophenyl)methyl]-2-methyl-5-(2-quinolinylmethoxy)-1H-indole-3-acetic acid methyl ester], for which, in assay [2], the inhibition at 500 µM amounted to 88%. In addition, the inhibition at 10000 µM in assay [3] (setting [6]) is less than 0%.
Turning to `CC(C(=O)O)c1ccc2c(c1)[nH]c1ccc(Cl)cc12` (centres unmarked) [carprofen, reference compound], the inhibition at 10000 µM in assay [2] is -10%; in assay [3] (setting [5]), 83%.
For `Cc1c(CC(=O)O)c2cc(OCc3ccc4ccccc4n3)ccc2n1Cc1ccccc1` [Example 26, 1-[(Phenyl)methyl-2-methyl]-5-(2-quinolinylmethoxy)-1H-indole-3-acetic acid tenth hydrate], in assay [1], the concentration for half-maximal inhibition (IC50) amounted to 2.6 µM and the inhibition is 92%. In addition, the inhibition at 10000 µM in assay [2] was found to be 85%. In assay [3] (setting [5]), the inhibition at 10000 µM is -125%.
With `Cc1c(CC(=O)O)c2cc(OCc3ccc4ccccc4n3)ccc2n1Cc1ccc(Cl)cc1` [Example 16, 1-[(4-Chlorophenyl)methyl]-2-methyl-5-(2-quinolinylmethoxy)-1H-indole-3-acetic acid hydrochloride quarter hydrate], in assay [1], the IC50 turned out to be 4.1 µM. For the same compound, the inhibition in assay [1] amounted to 46%. Further, the inhibition at 10000 µM in assay [2] was 96%; in assay [3] (setting [6]), less than 0%. Also, in assay [4], the “% Inhibition of LTB4” value stood at 18%.
For the compound `COC(=O)Cc1c(C)n(C(=O)c2ccc(Cl)cc2)c2ccc(OCc3ccc4ccccc4n3)cc12` [Example 17A, 1-(4-Chlorobenzoyl)-2-methyl-5-(2-quinolinylmethoxy)-1H-indole-3-acetic acid methyl esterone tenth hydrate], the inhibition at 10000 µM stood at 96% in assay [2] and 50% in assay [3] (setting [5]).
In the same order, the values of `CC(C(=O)O)c1ccc2c3cc(OCc4ccc5ccccc5n4)ccc3n(Cc3ccc4ccccc4n3)c2c1` (centres unmarked) [Example 21, a-Methyl-6-(2-quinolinylmethoxy)-9-(2-quinolinylmethyl)-9H-carbazole-2-acetic acid] are 92% and -94%.
With `Cc1c(CC(=O)O)c2cc(OCc3ccc4ccccc4n3)ccc2n1Cc1ccc(Br)cc1` [Example 25, 1-[(4-Bromophenyl)methyl]-2-methyl-5-(2-quinolinylmethoxy)-1H-indole-3-acetic acid hemihydrate], in assay [1], the inhibition came out at 11%. The figures for the inhibition at 10000 µM in assay [2] and in assay [3] (setting [5]) were 93% and -67%, respectively.
Take `CCCCCn1c(C)c(CC(=O)O)c2cc(OCc3ccc4ccccc4n3)ccc21` [Example 29, 2-Methyl-1-pentyl-5-(2-quinolinylmethoxy)-1H-indole-3-acetic acid hemihydrate]: in assay [1], the IC50 was determined as 15.5 µM and the inhibition is 53%. Moreover, the inhibition at 10000 µM in assay [2] stood at 88%. For the same compound, the inhibition at 10000 µM in assay [3] (setting [5]) is -123%.
